Test results published in patent US20260262635A1, “BAR COMPOSITION HAVING ENHANCED ANTIMICROBIAL ACTIVITY” (Conopco, Inc., d/b/a UNILEVER, priority 2021, published 2026).

Test system: S. aureus ATCC 6538
Assay: Time-kill assay adapted from ASTM E2315-16, S. aureus
Assay type: cell-based
Conditions: S. aureus and E. coli, 30 seconds of contact
Protocol: Aqueous slurries were prepared whereby gratings from the bars made in the Samples of Table I were mixed with water to form a test solution containing 10% by weight of the initial bar component. In the second method, raw bar components, as depicted in the Samples in Table II, were mixed with water to form a test solution containing a total of 10% raw bar component to simulate an aqueous slurry of a bar composition. For each sample, aqueous slurries were mixed at 50° C. to simulate customary consumer washing conditions.
As to the microbes, E. coli ATCC 10536 and S. aureus ATCC 6538 were used in this study to represent Gram negative and Gram positive bacteria, respectively. The bacteria were stored at −80° C. Fresh isolates were cultured twice on Tryptic Soy Agar plates for 24 hours at 37° C. before each experiment.
Test solutions were prepared. In the first method and for the aqueous slurries made from the bar compositions described in Table I, a composition (typically containing up to 15% surfactant) was mixed with water to form a test solution containing 10% weight percent of the initial formulation. In the second method and for the raw ingredients combined in Table II, the same were mixed with water at levels that simulate a 10% dilution of the slurries. In each assessment, test solutions were heated and mixed at […]
The log reduction was calculated using the formula: […]

Compound: CC(O)C(=O)O (stereo not shown) [lactic acid, Lactic acid]
- antimicrobial reduction / efficacy (in words): performed poorly against S. aureus
